{"source": "patent US11945806B2", "about": "“Stabilization of amyloidogenic immunoglobulin light chains” (The Scripps Research Institute, priority 2019, dated 2024)", "data": [{"target": "WIL-FL (Homo sapiens, UniProt P01721)", "experiment": "Unlabeled LC Protease Sensitivity Assay (proteinase K)", "type": "biochemical", "details": "small molecule 10 μM, WIL-FL 5 μM, proteinase K 50 nM, 2 hours at 37° C.", "in_short": "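Compound at 10 μM (1% DMSO) is mixed with 5 μM WIL-FL and 50 nM proteinase K in PBS pH 7.4/0.02% Pluronic F-127, 37 °C, 2 h, then quenched with PMSF. Remaining protein measured by SEC-UPLC peak area at 280 nm and expressed as fold protection relative to vehicle and no-protease controls.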", "values": [{"smiles": "CCN(CC)c1ccc2c(C)c(CCNC(=O)NCc3ccc4c(=O)[nH]ccc4c3)c(=O)oc2c1", "note": "[Compound 296, 1-(2-(7-(diethylamino)-4-methyl-2-oxo-2H-chromen-3-yl)ethyl)-3-((1-oxo-1,2-dihydroisoquinolin-6-yl)methyl)urea]", "Protection (fold protection of LC from protease)": "B (3 ≤ B < 0.6)"}, {"smiles": "CCN(CC)c1ccc2c(C)c(CCC(=O)NCCc3cccc(F)c3)c(=O)oc2c1", "note": "[Compound 72]", "Protection (fold protection of LC from protease)": "A (A < 0.3))"}, {"smiles": "Cc1cc(=O)oc2cc(C(=O)O)ccc12", "note": "[Compound 225, 4-methyl-2-oxo-2H-chromene-7-carboxylic acid]", "Protection (fold protection of LC from protease)": "A (A < 0.3))"}, {"smiles": "CCN(CC)c1ccc2c(C)c(CN3C(=O)CNC3=O)c(=O)oc2c1", "note": "[Compound 129, 3-((7-(diethylamino)-4-methyl-2-oxo-2H-chromen-3-yl)methyl)imidazolidine-2,4-dione]", "Protection (fold protection of LC from protease)": "B (3 ≤ B < 0.6)"}, {"smiles": "Cc1cc(=O)oc2cc(OC(C)c3ccccn3)ccc12", "note": "(centres unmarked) [Compound 174, 4-methyl-7-(1-(pyridin-2-yl)ethoxy)-2H-chromen-2-one]", "Protection (fold protection of LC from protease)": "A (A < 0.3))"}, {"smiles": "CCN(CC)c1ccc2c(C)c(CCNC(=O)NCc3ccc4[nH]ccc4c3)c(=O)oc2c1", "note": "[Compound 279, 1-((1H-indol-5-yl)methyl)-3-(2-(7-(diethylamino)-4-methyl-2-oxo-2H-chromen-3-yl)ethyl)urea]", "Protection (fold protection of LC from protease)": "A (A < 0.3))"}, {"smiles": "C=CCN(C)c1ccc2c(C)cc(=O)oc2c1", "note": "[Compound 252, 7-(allyl(methyl)amino)-4-methyl-2H-chromen-2-one]", "Protection (fold protection of LC from protease)": "A (A < 0.3))"}, {"smiles": "Cc1cc(=O)oc2cc(N3CCCC3)ccc12", "note": "[Compound 36, 4-methyl-7-(pyrrolidin-1-yl)-2H-chromen-2-one]", "Protection (fold protection of LC from protease)": "A (A < 0.3))"}, {"smiles": "CCN(CC)c1ccc2cc(C#N)c(=N)oc2c1", "note": "[Compound 26, 7-(diethylamino)-2-imino-2H-chromene-3-carbonitrile]", "Protection (fold protection of LC from protease)": "A (A < 0.3))"}, {"smiles": "CCN(CCF)c1ccc2c(C)cc(=O)oc2c1", "note": "[Compound 273, 7-(ethyl(2-fluoroethyl)amino)-4-methyl-2H-chromen-2-one]", "Protection (fold protection of LC from protease)": "A (A < 0.3))"}, {"smiles": "CCN(CC)c1ccc2c(C)c(CCOC(=O)NCC3CCNCC3)c(=O)oc2c1", "note": "[Compound 147, 2-(7-(diethylamino)-4-methyl-2-oxo-2H-chromen-3-yl)ethyl (piperidin-4-ylmethyl)carbamate]", "Protection (fold protection of LC from protease)": "B (3 ≤ B < 0.6)"}, {"smiles": "Cc1cc(=O)oc2cc(C(=O)NCc3ccc(O)cc3)ccc12", "note": "[Compound 230, N-(4-hydroxybenzyl)-4-methyl-2-oxo-2H-chromene-7-carboxamide]", "Protection (fold protection of LC from protease)": "A (A < 0.3))"}, {"smiles": "CCN(CC)c1ccc2c(C)c(CCN3C(=O)NC4(CCN(c5ncccn5)C4)C3=O)c(=O)oc2c1", "note": "(centres unmarked) [Compound 194, 3-(2-(7-(diethylamino)-4-methyl-2-oxo-2H-chromen-3-yl)ethyl)-7-(pyrimidin-2-yl)-1,3,7-triazaspiro[4.4]nonane-2,4-dione]", "Protection (fold protection of LC from protease)": "C (C ≥ 0.6)"}, {"smiles": "Cc1cc(=O)oc2cc(OC(C)c3ccccc3F)ccc12", "note": "(centres unmarked) [Compound 49, 7-(1-(2-fluorophenyl)ethoxy)-4-methyl-2H-chromen-2-one]", "Protection (fold protection of LC from protease)": "A (A < 0.3))"}, {"smiles": "Cc1cc(=O)oc2cc(NCC3CC3)ccc12", "note": "[Compound 246, 7-((cyclopropylmethyl)amino)-4-methyl-2H-chromen-2-one]", "Protection (fold protection of LC from protease)": "A (A < 0.3))"}, {"smiles": "Cc1cc(=O)oc2cc(OC(C)c3c(F)cccc3F)ccc12", "note": "(centres unmarked) [Compound 51, 7-(1-(2,6-difluorophenyl)ethoxy)-4-methyl-2H-chromen-2-one]", "Protection (fold protection of LC from protease)": "A (A < 0.3))"}, {"smiles": "CCN(CC)c1ccc2c(C)c(CCOC(=O)N3CCS(=O)(=O)CC3)c(=O)oc2c1", "note": "[Compound 112, 2-(7-(diethylamino)-4-methyl-2-oxo-2H-chromen-3-yl)ethyl thiomorpholine-4-carboxylate 1,1-dioxide]", "Protection (fold protection of LC from protease)": "A (A < 0.3))"}, {"smiles": "CCN(CC)c1ccc2c(C)c(CCN3C(=O)NC4(CCN(c5ncnc6[nH]cnc56)CC4)C3=O)c(=O)oc2c1", "note": "[Compound 188, 3-(2-(7-(diethylamino)-4-methyl-2-oxo-2H-chromen-3-yl)ethyl)-8-(9H-purin-6-yl)-1,3,8-triazaspiro[4.5]decane-2,4-dione]", "Protection (fold protection of LC from protease)": "C (C ≥ 0.6)"}, {"smiles": "CCN(CC)c1ccc2c(C)c(CCNC(C)=O)c(=O)oc2c1", "note": "[Compound 94, N-(2-(7-(diethylamino)-4-methyl-2-oxo-2H-chromen-3-yl)ethyl)acetamide]", "Protection (fold protection of LC from protease)": "A (A < 0.3))"}, {"smiles": "CCN(CCc1ccccc1)c1ccc2c(C)cc(=O)oc2c1", "note": "[Compound 37, 7-(ethyl(phenethyl)amino)-4-methyl-2H-chromen-2-one]", "Protection (fold protection of LC from protease)": "A (A < 0.3))"}, {"smiles": "CCN(CC)c1ccc2c(C)c(CCN3CC4(CCN(c5ccccc5)CC4)NC3=O)c(=O)oc2c1", "note": "[Compound 158, 3-(2-(7-(diethylamino)-4-methyl-2-oxo-2H-chromen-3-yl)ethyl)-8-phenyl-1,3,8-triazaspiro[4.5]decan-2-one]", "Protection (fold protection of LC from protease)": "B (3 ≤ B < 0.6)"}, {"smiles": "CCN(CC)c1ccc2c(C)c(CCN3C(=O)NC4(CCN(C(=O)c5ncc[nH]5)CC4)C3=O)c(=O)oc2c1", "note": "[Compound 177, 3-(2-(7-(diethylamino)-4-methyl-2-oxo-2H-chromen-3-yl)ethyl)-8-(1H-imidazole-2-carbonyl)-1,3,8-triazaspiro[4.5]decane-2,4-dione]", "Protection (fold protection of LC from protease)": "C (C ≥ 0.6)"}, {"smiles": "CCN(CC)c1ccc2c(C)c(CCOC(=O)NCc3ccc(Cl)nc3)c(=O)oc2c1", "note": "[Compound 97, 2-(7-(diethylamino)-4-methyl-2-oxo-2H-chromen-3-yl)ethyl ((6-chloropyridin-3-yl)methyl)carbamate]", "Protection (fold protection of LC from protease)": "A (A < 0.3))"}, {"smiles": "CCN(CC)c1ccc2c(C)c(CCN3C(=O)NC4(CCN(S(=O)(=O)CC)C4)C3=O)c(=O)oc2c1", "note": "(centres unmarked) [Compound 203, 3-(2-(7-(diethylamino)-4-methyl-2-oxo-2H-chromen-3-yl)ethyl)-7-(ethylsulfonyl)-1,3,7-triazaspiro[4.4]nonane-2,4-dione]", "Protection (fold protection of LC from protease)": "C (C ≥ 0.6)"}, {"smiles": "CCN(CC)c1ccc2c(C)c(CCNC(=O)NCc3cccc(-c4c[nH]cn4)c3)c(=O)oc2c1", "note": "[Compound 291, 1-(3-(1H-imidazol-4-yl)benzyl)-3-(2-(7-(diethylamino)-4-methyl-2-oxo-2H-chromen-3-yl)ethyl)urea]", "Protection (fold protection of LC from protease)": "C (C ≥ 0.6)"}, {"smiles": "CCN(CC)c1ccc2c(C)c(CCNC(=O)NCc3ccccc3)c(=O)oc2c1", "note": "[Compound 278, 1-benzyl-3-(2-(7-(diethylamino)-4-methyl-2-oxo-2H-chromen-3-yl)ethyl)urea]", "Protection (fold protection of LC from protease)": "C (C ≥ 0.6)"}, {"smiles": "CCN(CC)c1ccc2c(C)c(CCOC(=O)NCc3cncc(-c4ccc[nH]c4=O)c3)c(=O)oc2c1", "note": "[Compound 220, 2-(7-(diethylamino)-4-methyl-2-oxo-2H-chromen-3-yl)ethyl ((2′-oxo-1′,2′-dihydro-[3,3′-bipyridin]-5-yl)methyl)carbamate]", "Protection (fold protection of LC from protease)": "A (A < 0.3))"}, {"smiles": "CCN(CC)c1ccc2c(C)c(CCOC(=O)NCc3cccc(-c4nc[nH]n4)c3)c(=O)oc2c1", "note": "[Compound 165, 2-(7-(diethylamino)-4-methyl-2-oxo-2H-chromen-3-yl)ethyl (3-(1H-1,2,4-triazol-5-yl)benzyl)carbamate]", "Protection (fold protection of LC from protease)": "C (C ≥ 0.6)"}, {"smiles": "CCc1cc(=O)oc2cc(N(CC)CC)ccc12", "note": "[Compound 136, 7-(diethylamino)-4-ethyl-2H-chromen-2-one]", "Protection (fold protection of LC from protease)": "A (A < 0.3))"}, {"smiles": "C#CCN(CCCF)c1ccc2c(C)cc(=O)oc2c1", "note": "[Compound 264, 7-((3-fluoropropyl)(prop-2-yn-1-yl)amino)-4-methyl-2H-chromen-2-one]", "Protection (fold protection of LC from protease)": "A (A < 0.3))"}, {"smiles": "CCN(CC)c1ccc2c(C)c(CCNC(=O)NCc3ccncc3)c(=O)oc2c1", "note": "[Compound 277, 1-(2-(7-(diethylamino)-4-methyl-2-oxo-2H-chromen-3-yl)ethyl)-3-(pyridin-4-ylmethyl)urea]", "Protection (fold protection of LC from protease)": "B (3 ≤ B < 0.6)"}, {"smiles": "CCN(c1ccc2c(C)cc(=O)oc2c1)C(C)C", "note": "[Compound 274, 7-(ethyl(isopropyl)amino)-4-methyl-2H-chromen-2-one]", "Protection (fold protection of LC from protease)": "A (A < 0.3))"}, {"smiles": "CCN(CC)c1ccc2c(C)cc(=O)[nH]c2c1", "note": "[Compound 25, 7-(diethylamino)-4-methylquinolin-2(1H)-one]", "Protection (fold protection of LC from protease)": "A (A < 0.3))"}, {"smiles": "Cc1cc(=O)oc2cc(N3CCCCC3)ccc12", "note": "[Compound 48, 4-methyl-7-(piperidin-1-yl)-2H-chromen-2-one]", "Protection (fold protection of LC from protease)": "A (A < 0.3))"}, {"smiles": "CCN(CC)c1ccc2c(C)c(CCN3C(=O)NC4(CCN(C(=O)c5c[nH]cn5)CC4)C3=O)c(=O)oc2c1", "note": "[Compound 176, 3-(2-(7-(diethylamino)-4-methyl-2-oxo-2H-chromen-3-yl)ethyl)-8-(1H-imidazole-4-carbonyl)-1,3,8-triazaspiro[4.5]decane-2,4-dione]", "Protection (fold protection of LC from protease)": "B (3 ≤ B < 0.6)"}, {"smiles": "CCN(CC)c1ccc2c(C)c(CCNC(=O)NCCc3ccc(O)cc3)c(=O)oc2c1", "note": "[Compound 280, 1-(2-(7-(diethylamino)-4-methyl-2-oxo-2H-chromen-3-yl)ethyl)-3-(4-hydroxyphenethyl)urea]", "Protection (fold protection of LC from protease)": "B (3 ≤ B < 0.6)"}, {"smiles": "CCN(CC)c1ccc2c(C(F)(F)F)cc(=O)oc2c1", "note": "[Compound 24]", "Protection (fold protection of LC from protease)": "A (A < 0.3))"}, {"smiles": "CCN(CC)c1ccc2c(C)c(CCOC(=O)NCc3cccc(-c4ccccc4O)c3)c(=O)oc2c1", "note": "[Compound 218, 2-(7-(diethylamino)-4-methyl-2-oxo-2H-chromen-3-yl)ethyl ((2′-hydroxy-[1,1′-biphenyl]-3-yl)methyl)carbamate]", "Protection (fold protection of LC from protease)": "C (C ≥ 0.6)"}]}]}
